Among the data in patent US6416585B1, “Method for crystallizing polyols and sugars” (Vomm Chemipharma S.r.l., priority 1999, dated 2002) are solubility values, retold here.

A short description of this series: solubility of the crystallized granular sorbitol compared with the prior art. Format: physicochemical. Conditions: sorbitol granules of Example 1 after two hours long maturation; in comparison with the prior art.

Take `OC[C@@H](O)[C@@H](O)[C@H](O)[C@@H](O)CO` [sorbitol granules, sorbitol]: the solubility entry is recorded as “definitely improved”.
